This is an account of results in patent US9822115B2, “Nitrogen containing compounds and their use as antibacterial agents” (WOCKHARDT LIMITED, priority 2014, dated 2017).

Assay [1] relates to K. pneomoniae S48 (NDM, SHV, TEM). The experiment in a line: Antibacterial activity, MIC by agar dilution (CLSI). Format: cell-based, K. pneumoniae. To be noted: Klebsiella pneumoniae; Table 2; K. pneomoniae S48 (NDM, SHV, TEM); read-out: MIC. The method, boiled down: (§1)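 Agar dilution per CLSI on Mueller Hinton agar with doubling compound dilutions, about 10^4 CFU/spot by multipoint inoculator. Plates incubated 16-20 h at 35±2° C in ambient air; procedure also gives 37° C for 18 h. MIC (mcg/ml) scored as growth or no growth.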

The subject of assay [2] is K. pneumoniae H521 (KPC, SHV, TEM). Described as above. It counts as cell-based. To be noted: Klebsiella pneumoniae, read-out: MIC. In short, it runs like this:
as §1

The target of assay [3] is T1, Class A beta-lactamase, K. pneumoniae ATCC 700603 (SHV 18) (Klebsiella pneumoniae, UniProt P0AD64, E235K/G234A/R39S).
T1 construct: preincubated mixture of crude enzyme and the agents; endogenous in cells; host or cells: K. pneumoniae ATCC 700603
T1 sequence (P0AD64 22-286 R39S/G234A/E235K): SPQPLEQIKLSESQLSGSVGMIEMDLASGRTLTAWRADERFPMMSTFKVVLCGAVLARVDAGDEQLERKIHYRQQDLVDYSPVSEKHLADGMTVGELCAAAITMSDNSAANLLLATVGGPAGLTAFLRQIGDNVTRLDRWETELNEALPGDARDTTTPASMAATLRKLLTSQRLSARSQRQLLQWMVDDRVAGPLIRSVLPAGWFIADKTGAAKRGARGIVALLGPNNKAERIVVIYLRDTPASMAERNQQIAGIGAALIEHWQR
The experiment in a line: biochemical. In short, it runs like this:
(§2)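 Crude enzyme preincubated with inhibitor 10 min at 37 °C, then nitrocefin (100 uM) added for 5 min. Absorbance read at 485 nm; IC50 obtained from sigmoidal dose-response fit of absorbance versus concentration.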

Assay [4] relates to T2, Class C beta-lactamase, E. coli M50 (CMY/DHA).
T2 construct: no borders, tags or purification printed
Format: biochemical. To be noted: read-out: Beta-lactamase enzyme inhibition IC50. The method, boiled down: as §2

The mark [5] stands for this setting: Table 2, K. pneumoniae H521 (KPC, SHV, TEM).

SMILES strings stand for the structures. Converted amounts (≈) assume the structure as drawn. Read-outs that look alike come from different tables or passages of the source.

For the compound `NCCOc1ccccc1CC(=O)NNC(=O)[C@@H]1CC[C@@H]2CN1C(=O)N2OS(=O)(=O)O` [Example 2, (2S,5R)-Sulfuric Acid mono-[2-(N′-{2-[2-(2-amino-ethoxy)-phenyl]-acetyl}-hydrazinocarbonyl)-7-oxo-1,6-diaza-bicyclo[3.2.1]oct-6-yl]ester], the MIC came to 1 µg/mL (≈ 2.19 µM) in assay [1]; 1 µg/mL (≈ 2.19 µM) in assay [2] (setting [5]); 2 µg/mL (≈ 4.37 µM) in assay [2] (Table 3, K. pneumoniae H 521). In addition, the IC50 in assay [3] came out at 119 nM; in assay [4] it was 122 nM.
In the case of `O=C(Cc1ccc(O)cc1)NNC(=O)[C@@H]1CC[C@@H]2CN1C(=O)N2OS(=O)(=O)[O-].[Na+]` [Example 1, Sodium Salt of (2S,5R)-Sulfuric Acid mono-[2-(N′-(4-hydroxyphenyl-acetyl)-hydrazinocarbonyl)-7-oxo-1,6-diaza-bicyclo[3.2.1]oct-6-yl]ester], the MIC in assay [1] stood at 0.5 µg/mL; in assay [2] (setting [5]), 1 µg/mL; in assay [2] (Table 3, K. pneumoniae H 521) it was 1 µg/mL. The values for the IC50 in assay [3] and in assay [4] were 103 nM and 5 nM, respectively.
